In PubChem BioAssay (NCI):
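Tested at 5 concentrations; 48 h exposure; 96-well plates; endpoints linearly interpolated, else capped at highest concentration. GI50: concentration for 50% inhibition of growth. The concentration for full growth arrest is given as TGI.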

How the values were obtained:
Assay in all cases: NCI tumour cell line growth inhibition, 48 h
NCI-H23 lung = test system: NCI-H23 lung
HOP-62 NSCLC = test system: HOP-62 NSCLC
OVCAR-5 ovarian = test system: OVCAR-5 ovarian
MDA-MB-435 = test system: MDA-MB-435
M14 melanoma = test system: M14 melanoma
NCI-H226 lung = test system: NCI-H226 lung
ACHN renal = test system: ACHN renal
SK-MEL-5 melanoma = test system: SK-MEL-5 melanoma
HCT-116 colon = test system: HCT-116 colon
OVCAR-3 ovarian = test system: OVCAR-3 ovarian

Row | Structure (SMILES) | GI50 (NCI-H23 lung) [µM] | TGI (NCI-H23 lung) [µM] | GI50 (HOP-62 NSCLC) [µM] | TGI (HOP-62 NSCLC) [µM] | GI50 (OVCAR-5 ovarian) [µM] | TGI (OVCAR-5 ovarian) [µM] | GI50 (MDA-MB-435) [µM] | TGI (MDA-MB-435) [µM] | GI50 (M14 melanoma) [µM] | TGI (M14 melanoma) [µM] | GI50 (NCI-H226 lung) [µM] | TGI (NCI-H226 lung) [µM] | GI50 (ACHN renal) [µM] | TGI (ACHN renal) [µM] | GI50 (SK-MEL-5 melanoma) [µM] | TGI (SK-MEL-5 melanoma) [µM] | GI50 (HCT-116 colon) [µM] | TGI (HCT-116 colon) [µM] | GI50 (OVCAR-3 ovarian) [µM] | TGI (OVCAR-3 ovarian) [µM]
1 | N#CC1=C(N)Oc2cc(O)ccc2C1c1cccc2ccccc12 (stereo not given) | 10.2 | 22.6 | 13.5 | 31.7 | 14.6 | 28.8 | 2.51 | 6.68 | 5.72 | 21.6 | 24.2 | 82.3 | 17.2 | 35 | 4.83 | 19.4 | 6.52 | 25.7 | 4.07 | 16.6
2 | COc1ccc(-c2coc3c4c(ccc3c2=O)OCO4)cc1OC |  | > 100 |  | > 100 |  | > 100 |  | > 100 |  | > 100 |  | > 100 |  | > 100 |  | > 100 |  | > 100 |  | > 100
3 | COc1ccc(CCNC(=O)c2ccc(NC3=C(Cl)C(=O)N(Cc4ccccc4)C3=O)cc2)cc1OC | 2.01 | 4.46 | 45 | > 100 | 16.9 | 43.7 | 15.8 | 43.8 | 5.47 | > 100 | 10 | > 100 | 43 | > 100 | 6.27 | 42.3 | 6.04 | > 100 | 10.9 | > 100
4 | CCN(Cc1ccccc1C)c1ccc(CO)c(Cl)c1 | 12.8 | 38 | 6.39 | 23.7 | 0.391 | 1.74 | 3.67 | 15.4 | 15.3 | 31.2 | 0.0375 | 0.201 | 15.7 | 39.4 | 4.77 | 11.9 | 0.445 | 11.6 | 2.13 | 9.79
5 | NCCSc1nc(-c2ccccc2)c(-c2ccccc2)o1 |  | > 100 |  | > 100 |  | > 100 |  | > 100 |  | > 100 |  | > 100 |  | > 100 |  | > 100 |  | > 100 |  | > 100
6 | O[C@H](c1cc(C(F)(F)F)nc2c(C(F)(F)F)cccc12)[C@@H]1CCCCN1 | 4.75 | 16.6 | 4.73 | 11.8 | 7.21 | 20.7 | 2.43 | 7.07 | 2.53 | 6.69 | 6.72 | 22.6 | 2.82 | 10.7 | 3.64 | 8.09 | 2.3 | 5.44 | 3.38 | 11.5
7 | O=CN1CCN(CC(O)CN2CCCCC2)CC1 (stereo not given) |  | > 100 |  | > 100 |  | > 100 |  | > 100 |  | > 100 |  | > 100 |  | > 100 |  | > 100 |  | > 100 |  | > 100
8 | O=C(CSC1CCc2ccccc21)N/N=C/c1ccccc1O (stereo not given) | 9.83 | > 100 | 10.8 | > 100 | 8.8 | > 100 | 5.87 | > 100 | 3.7 | 63 | 3.11 | 35.8 | 2.67 | 20 | 1.85 | 5.17 | 5.01 | 65.6 | 4.67 | 48.9
9 | C=C1C(=O)O[C@H]2[C@H]1CC/C(COC(=O)/C=C\C(=O)NCc1ccc(Cn3c(=O)sn(CCCC)c3=O)cc1)=C\CC[C@@]1(C)O[C@@H]21 | 1.4 | 2.89 | 1.63 | 3.46 | 1.33 | 2.75 | 0.513 | 1.77 | 0.678 | 2.06 | 1.58 | 3.39 | 0.299 | 0.994 | 1.4 | 2.71 | 0.176 | 0.491 | 0.229 | 0.589
10 | Cc1nc2sc3c(c2c(=O)[nH]1)CCCC3 |  | > 100 |  | > 100 |  | > 100 |  | > 100 |  | > 100 |  | > 100 |  | > 100 |  | > 100 |  | > 100 |  | > 100
11 | CC1=NC(=Cc2cc(Br)cc(Br)c2)C(=O)N1n1c(-c2ccccc2)nc2ccccc2c1=O |  | > 100 |  | > 100 |  | > 100 |  | > 100 |  | > 100 |  | > 100 |  | > 100 |  | > 100 |  | > 100 |  | > 100
12 | CCN1CCC(O)(/C=C/c2ccc(C)cc2)C(C(=O)/C=C/c2ccc(C)cc2)C1 (stereo not given) |  | 18.5 |  | 25.9 |  | 23.2 |  | 8.75 |  | 9.52 |  | 29 |  | 14.7 |  | 9.85 |  | 4.63 |  | 18.4
13 | COc1ccc(-c2ccc(-c3ccc(C(=N)N)s3)s2)cc1 | 0.264 | 0.66 | 0.214 | 0.446 | 0.197 | 0.43 | 0.179 | 0.336 | 0.18 | 0.344 | 2.06 | 5.15 | 0.19 | 0.359 | 1.21 | 2.87 | 0.179 | 0.342 | 0.194 | 0.352
14 | CCOC(=O)c1c(NC(=O)c2cccc(C(F)(F)F)c2)sc2c(CN(C)C)c(O)ccc12 | 13.1 | 32.1 | 13.8 | 27.7 | 4.58 | 16.7 | 3.15 | 12.9 | 1.89 | 3.53 | 16 | 36.2 | 4.49 | 15.8 | 2.36 | 5.72 | 3.14 | 10.3 | 10.1 | 21.7
15 | COc1cc(OC)c(/C=C/c2c3ccccc3cc[n+]2C)c(OC)c1 | 1.29 | 25.8 | 3.52 | > 33.7 | 3.04 | > 49 | 0.781 | 10.1 | 2.62 | 15.4 | 2.73 | > 100 | 10.9 | > 100 | 0.642 | 2.21 | 1.4 | 13.5 | 1.23 | 9.78
